For 7 compounds, IC50 results are on record in BindingDB's records for doi:10.1021/jm00032a003 (Merck Research Laboratories, 1994).

The assay in a line: The compound was tested for binding activity against Cholecystokinin type B receptor from rat […] tissue using [125]BH CCK-8 as radioligand.

The term IC50 denotes the concentration at which inhibition is half-maximal. A higher IC50 goes with weaker potency in that assay.

In the case of `CN1C(=O)[C@H](NC(=O)Nc2ccc(C(=O)O)cc2)N=C(c2ccccc2)c2ccccc21`, the IC50 was 6.7 nM.

Consider `CC(C)CN1C(=O)[C@H](NC(=O)Nc2ccc(-c3nnn[nH]3)cc2)N=C(c2ccccc2)c2ccccc21` [1-((R)-1-Isobutyl-2-oxo-5-phenyl-2,3-dihydro-1H-benzo[e][1,4]diazepin-3-yl)-3-[4-(1H-tetrazol-5-yl)-phenyl]-urea], for which the concentration for half-maximal inhibition (IC50) was found to be 23.8 nM.

In the case of `CN1C(=O)[C@H](NC(=O)Nc2ccc(-c3nnn[nH]3)cc2)N=C(c2ccccc2)c2ccccc21` [1-((R)-1-Methyl-2-oxo-5-phenyl-2,3-dihydro-1H-benzo[e][1,4]diazepin-3-yl)-3-[4-(1H-tetrazol-5-yl)-phenyl]-urea], the concentration for half-maximal inhibition (IC50) was 250 nM.

The compound `CN1C(=O)[C@H](NC(=O)Nc2ccc(-c3nc(=O)o[nH]3)cc2)N=C(c2ccccc2)c2ccccc21` [1-((R)-1-Methyl-2-oxo-5-phenyl-2,3-dihydro-1H-benzo[e][1,4]diazepin-3-yl)-3-[4-(5-oxo-4,5-dihydro-[1,2,4]oxadiazol-3-yl)-phenyl]-urea] yielded an IC50 of 56.4 nM.

`CC(C)CN1C(=O)[C@@H](NC(=O)Nc2ccc(-c3nnn[nH]3)cc2)N=C(c2ccccc2)c2ccccc21` [1-((S)-1-Isobutyl-2-oxo-5-phenyl-2,3-dihydro-1H-benzo[e][1,4]diazepin-3-yl)-3-[4-(1H-tetrazol-5-yl)-phenyl]-urea] had an IC50 of 0.142 nM.

Compound `CN1C(=O)[C@@H](NC(=O)Nc2ccc(-c3nnn[nH]3)cc2)N=C(c2ccccc2)c2ccccc21` [1-((S)-1-Methyl-2-oxo-5-phenyl-2,3-dihydro-1H-benzo[e][1,4]diazepin-3-yl)-3-[4-(1H-tetrazol-5-yl)-phenyl]-urea] yielded an IC50 of 1.02 nM.

`CN1C(=O)[C@@H](NC(=O)Nc2ccc(-c3nc(=O)o[nH]3)cc2)N=C(c2ccccc2)c2ccccc21` [1-((S)-1-Methyl-2-oxo-5-phenyl-2,3-dihydro-1H-benzo[e][1,4]diazepin-3-yl)-3-[4-(5-oxo-4,5-dihydro-[1,2,4]oxadiazol-3-yl)-phenyl]-urea] had an IC50 of 0.266 nM.
